Test results as given in patent publication US20250179061A1 (SIRONAX LTD., priority 2022, published 2025).

What follows are compounds tested on HT-29 cells (assay: HT-29 necroptosis cell viability assay (TNF-α/SMAC mimetic/zVAD-FMK, CellTiter-Glo)). Conditions: Homo sapiens, HT-29, HT-29 cells, necroptosis induced by TNF-α/SMAC mimetic/zVAD-FMK, CellTiter-Glo; read-out: Activity (IC50 class).
Format: cell-based
In short: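 HT-29 cells (~5,000/well, overnight) in FBS-free McCoy's 5A with TNF-α 10 ng/ml, SMAC mimetic 6 μM and zVAD-FMK 10 μM plus 10-point 1:3 compound titration, 20 h at 37°C. ATP measured by CellTiter-Glo luminescence; IC50 as geometric mean of duplicates.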

Which IC50 does the source give for `Cc1nc(C2=CCOCC2)sc1Oc1ccc(-n2ncn(Cc3c(F)cccc3F)c2=O)cc1` [Example 631, 4-(2,6-difluorobenzyl)-2-(4-((2-(3,6-dihydro-2H-pyran-4-yl)-4-methylthiazol-5-yl)oxy)phenyl)-2,4-dihydro-3H-1,2,4-triazol-3-one] here?
The IC50 was under 100 nM.

How did the IC50 turn out when `Cc1nc(C2=CCOC2)sc1Oc1ccc(-n2ncn(Cc3c(F)cccc3F)c2=O)cc1` [Example 632, 4-(2,6-difluorobenzyl)-2-(4-((2-(2,5-dihydrofuran-3-yl)-4-methylthiazol-5-yl)oxy)phenyl)-2,4-dihydro-3H-1,2,4-triazol-3-one] was run?
Its IC50 is under 100 nM.

For `Cc1nc(C2=NCCN2C)sc1Oc1ccc(-n2ncn(Cc3c(F)cccc3F)c2=O)cc1` [Example 633, 4-(2,6-difluorobenzyl)-2-(4-((4-methyl-2-(1-methyl-4,5-dihydro-1H-imidazol-2-yl)thiazol-5-yl)oxy)phenyl)-2,4-dihydro-3H-1,2,4-triazol-3-one], which IC50 is on record?
Its IC50 is under 100 nM.

With `Cc1nc(C=O)sc1Oc1ccc(-n2ncn(Cc3c(F)cccc3F)c2=O)cc1F` [Example 634, 5-[4-[4-[(2,6-difluorophenyl)methyl]-5-oxo-1,2,4-triazol-1-yl]-2-fluoro-phenoxy]-4-methyl-thiazole-2-carbaldehyde] as the compound, how does the IC50 read?
Its IC50 is under 100 nM.

With `Cc1nc(C(N)=O)sc1OC1CCC(n2nc3n(c2=O)[C@H](c2ccccc2)CC3)CC1` (stereo partly drawn) [Example 635, (S)-4-methyl-5-((4-(3-oxo-5-phenyl-6,7-dihydro-3H-pyrrolo[2,1-c][1,2,4]triazol-2(5H)-yl)cyclohexyl)oxy)thiazole-2-carboxamide] as the compound, how does the IC50 read?
The IC50 was 1000 to 10000 nM.

With `Cc1nc(CC(=O)O)sc1Oc1ccc(-n2ncn(Cc3c(F)cccc3F)c2=O)cc1F` [Example 637, 2-[5-[4-[4-[(2,6-difluorophenyl)methyl]-5-oxo-1,2,4-triazol-1-yl]-2-fluoro-phenoxy]-4-methyl-thiazol-2-yl]acetic acid] as the compound, how does the IC50 read?
The IC50 was under 100 nM.

For `Cc1nc(C(=O)NC2CCOCC2)sc1Oc1ccc(-n2ncn(Cc3ccccc3F)c2=O)cc1F` [Example 642, 5-[2-fluoro-4-[4-[(2-fluorophenyl)methyl]-5-oxo-1,2,4-triazol-1-yl]phenoxy]-4-methyl-N-tetrahydropyran-4-yl-thiazole-2-carboxamide], which IC50 is on record?
Its IC50 is under 100 nM.

For `Cc1nc(C(N)=O)sc1Oc1ncc(-n2ncn(Cc3c(F)cccc3F)c2=O)cc1F` [Example 643, 5-((5-(4-(2,6-difluorobenzyl)-5-oxo-4,5-dihydro-1H-1,2,4-triazol-1-yl)-3-fluoropyridin-2-yl)oxy)-4-methylthiazole-2-carboxamide], which IC50 is on record?
The IC50 was under 100 nM.

With `Cc1ncsc1Oc1ncc(-n2ncn(Cc3c(F)cccc3F)c2=O)cc1F` [Example 644, 4-(2,6-difluorobenzyl)-2-(5-fluoro-6-((4-methylthiazol-5-yl)oxy)pyridin-3-y1)-2,4-dihydro-3H-1,2,4-triazol-3-one] as the compound, how does the IC50 read?
Its IC50 is under 100 nM.

How did the IC50 turn out when `Cc1nc(Br)sc1Oc1ncc(-n2ncn(Cc3c(F)cccc3F)c2=O)cc1F` [Example 645, 2-(6-((2-bromo-4-methylthiazol-5-y1)oxy)-5-fluoropyridin-3-yl)-4-(2,6-difluorobenzyl)-2,4-dihydro-3H-1,2,4-triazol-3-one] was run?
Its IC50 is under 100 nM.

With `COC(=O)c1nc(C)c(Oc2ncc(-n3ncn(Cc4c(F)cccc4F)c3=O)cc2F)s1` [Example 646, methyl 5-((5-(4-(2,6-difluorobenzyl)-5-oxo-4,5-dihydro-1H-1,2,4-triazol-1-yl)-3-fluoropyridin-2-yl)oxy)-4-methylthiazole-2-carboxylate] as the compound, how does the IC50 read?
The IC50 was under 100 nM.

For `Cc1nc(C(N)=O)sc1Oc1ncc(-n2ncn(Cc3c(F)cccc3F)c2=O)cc1Cl` [Example 647, 5-((3-chloro-5-(4-(2,6-difluorobenzy1)-5-oxo-4,5-dihydro-1H-1,2,4-triazol-1-yl)pyridin-2-yl)oxy)-4-methylthiazole-2-carboxamide], which IC50 is on record?
The IC50 was under 100 nM.

Same assay, conditions: Homo sapiens, HT-29, HT-29 necroptosis cell viability assay; class symbols for IC50; read-out: Activity

`CNC(=O)c1nc(C)c(Oc2ccc(-n3ncn(Cc4c(F)cccc4F)c3=O)cc2F)s1` [Example 609, 5-(4-(4-(2,6-difluorobenzyl)-5-oxo-4,5-dihydro-1H-1,2,4-triazol-1-yl)-2-fluorophenoxy)-N,4-dimethylthiazole-2-carboxamide] was tested. Which IC50 did it give?
The IC50 was under 100 nM.

With `CCNC(=O)c1nc(C)c(Oc2ccc(-n3ncn(Cc4c(F)cccc4F)c3=O)cc2F)s1` [Example 610, 5-(4-(4-(2,6-difluorobenzyl)-5-oxo-4,5-dihydro-1H-1,2,4-triazol-1-yl)-2-fluorophenoxy)-N-ethyl-4-methylthiazole-2-carboxamide] as the compound, how does the IC50 read?
Its IC50 is under 100 nM.

`Cc1nc(C(=O)N(C)C)sc1Oc1ccc(-n2ncn(Cc3c(F)cccc3F)c2=O)cc1F` [Example 611, 5-(4-(4-(2,6-difluorobenzyl)-5-oxo-4,5-dihydro-1H-1,2,4-triazol-1-yl)-2-fluorophenoxy)-N,N,4-trimethylthiazole-2-carboxamide] was tested. Which IC50 did it give?
Its IC50 is under 100 nM.

How did the IC50 turn out when `Cc1nc(NC(=O)OC(C)(C)C)sc1Sc1ccc(-n2ncn(Cc3ccccc3)c2=O)cc1` [Example 612, tert-butyl (5-((4-(4-benzyl-5-oxo-4,5-dihydro-1H-1,2,4-triazol-1-yl)phenyl)thio)-4-methylthiazol-2-yl)carbamate] was run?
The IC50 was under 100 nM.

With `Cc1nc(C2(N)CC2)sc1Oc1ccc(-n2ncn(Cc3c(F)cccc3F)c2=O)cc1F` [Example 613, 2-(4-((2-(1-aminocyclopropyl)-4-methylthiazol-5-yl)oxy)-3-fluorophenyl)-4-(2,6-difluorobenzyl)-2,4-dihydro-3H-1,2,4-triazol-3-one] as the compound, how does the IC50 read?
Its IC50 is under 100 nM.

How did the IC50 turn out when `Cc1nc(C2(N)COC2)sc1Oc1ccc(-n2ncn(Cc3c(F)cccc3F)c2=O)cc1F` [Example 614, 2-(4-((2-(3-aminooxetan-3-yl)-4-methylthiazol-5-yl)oxy)-3-fluorophenyl)-4-(2,6-difluorobenzyl)-2,4-dihydro-3H-1,2,4-triazol-3-one] was run?
The IC50 was under 100 nM.

`N#Cc1cc(S(=O)(=O)c2ccc(-n3ncn(Cc4ccccc4)c3=O)cc2)ccn1` [Example 615, 4-((4-(4-benzyl-5-oxo-4,5-dihydro-1H-1,2,4-triazol-1-yl)phenyl)sulfonyl)picolinonitrile] was tested. Which IC50 did it give?
The IC50 was under 100 nM.

`COc1cc(S(=O)(=O)c2ccc(-n3ncn(Cc4ccccc4)c3=O)cc2)ccn1` [Example 616, 4-benzyl-2-(4-((2-methoxypyridin-4-yl)sulfonyl)phenyl)-2,4-dihydro-3H-1,2,4-triazol-3-one] was tested. Which IC50 did it give?
The IC50 was under 100 nM.

For `COc1cc(S(=O)(=O)c2ccc(-n3nc4n(c3=O)C(c3ccccc3)CC4)cc2)ccn1` (stereo not drawn) [Example 617, 2-(4-((2-methoxypyridin-4-yl)sulfonyl)phenyl)-5-phenyl-2,5,6,7-tetrahydro-3H-pyrrolo[2,1-c][1,2,4]triazol-3-one], which IC50 is on record?
Its IC50 is under 100 nM.

How did the IC50 turn out when `COc1cc(S(=O)(=O)c2ccc(-n3ncn(Cc4c(F)cccc4F)c3=O)cc2)ccn1` [Example 618, 4-(2,6-difluorobenzyl)-2-(4-((2-methoxypyridin-4-yl)sulfonyl)phenyl)-2,4-dihydro-3H-1,2,4-triazol-3-one] was run?
Its IC50 is under 100 nM.

Which IC50 does the source give for `Cc1nn(-c2ccc(S(=O)(=O)N3CCN(C4CCCC4)CC3)cc2)c(=O)n1Cc1ccccc1` [Example 619, 4-benzyl-2-(4-((4-cyclopentylpiperazin-1-yl)sulfonyl)phenyl)-5-methyl-2,4-dihydro-3H-1,2,4-triazol-3-one] here?
Its IC50 is over 10000 nM.

With `Cc1nn(-c2ccc(S(=O)(=O)N3CCN(C4CCCCC4)CC3)cc2)c(=O)n1Cc1ccccc1` [Example 620, 4-benzyl-2-(4-((4-cyclohexylpiperazin-1-yl)sulfonyl)phenyl)-5-methyl-2,4-dihydro-3H-1,2,4-triazol-3-one] as the compound, how does the IC50 read?
The IC50 was 1000 to 10000 nM.

`Cc1nn(-c2ccc(S(=O)(=O)N3CCN(C4CCOCC4)CC3)cc2)c(=O)n1Cc1ccccc1` [Example 621, 4-benzyl-5-methyl-2-(4-((4-(tetrahydro-2H-pyran-4-yl)piperazin-1-yl)sulfonyl)phenyl)-2,4-dihydro-3H-1,2,4-triazol-3-one] was tested. Which IC50 did it give?
The IC50 was over 10000 nM.

With `Cc1nn(-c2ccc(S(=O)(=O)N3CCN(CC4CCOCC4)CC3)cc2)c(=O)n1Cc1ccccc1` [Example 622, 4-benzyl-5-methyl-2-(4-((4-((tetrahydro-2H-pyran-4-yl)methyl)piperazin-1-yl)sulfonyl)phenyl)-2,4-dihydro-3H-1,2,4-triazol-3-one] as the compound, how does the IC50 read?
Its IC50 is 100 to 1000 nM.

Which IC50 does the source give for `Cc1nn(-c2ccc(S(=O)(=O)N3CCN(C4COC4)CC3)cc2)c(=O)n1Cc1ccccc1` [Example 623] here?
The IC50 was over 10000 nM.

`Cc1nn(-c2ccc(S(=O)(=O)N3CCN(CC4CCC4)CC3)cc2)c(=O)n1Cc1ccccc1` [Example 624] was tested. Which IC50 did it give?
The IC50 was 1000 to 10000 nM.

How did the IC50 turn out when `Cc1nn(-c2ccc(S(=O)(=O)N3CCN(CC4CCOC4)CC3)cc2)c(=O)n1Cc1ccccc1` (stereo not drawn) [Example 625, 4-benzyl-5-methyl-2-(4-((4-((tetrahydrofuran-3-yl)methyl)piperazin-1-yl)sulfonyl)phenyl)-2,4-dihydro-3H-1,2,4-triazol-3-one] was run?
The IC50 was 100 to 1000 nM.

`Cc1nn(-c2ccc(S(=O)(=O)N3CCN(C4CCCOC4)CC3)cc2)c(=O)n1Cc1ccccc1` (stereo not drawn) [Example 626, 4-benzyl-5-methyl-2-(4-((4-(tetrahydro-2H-pyran-3-yl)piperazin-1-yl)sulfonyl)phenyl)-2,4-dihydro-3H-1,2,4-triazol-3-one] was tested. Which IC50 did it give?
The IC50 was 1000 to 10000 nM.

For `Cc1nc(N)sc1S(=O)(=O)c1ccc(-n2ncn(Cc3ccccc3)c2=O)cc1` [Example 627, 2-(4-((2-amino-4-methylthiazol-5-yl)sulfonyl)phenyl)-4-benzyl-2,4-dihydro-3H-1,2,4-triazol-3-one], which IC50 is on record?
The IC50 was 100 to 1000 nM.

With `Cc1nc(NC(=O)OC(C)(C)C)sc1S(=O)(=O)c1ccc(-n2ncn(Cc3ccccc3)c2=O)cc1` [Example 629, tert-butyl (5-((4-(4-benzyl-5-oxo-4,5-dihydro-1H-1,2,4-triazol-1-yl)phenyl)sulfonyl)-4-methylthiazol-2-yl)carbamate] as the compound, how does the IC50 read?
The IC50 was 100 to 1000 nM.

For `N#Cc1cc(Oc2ccc(-n3ncn(Cc4c(F)cccc4F)c3=O)cc2)ncn1` [Example 630, 6-(4-(4-(2,6-difluorobenzyl)-5-oxo-4,5-dihydro-1H-1,2,4-triazol-1-yl)phenoxy)pyrimidine-4-carbonitrile], which IC50 is on record?
Its IC50 is 1000 to 10000 nM.
